Test system: PC12 cells
Assay: Microchip amperometric detection of electrically evoked exocytotic catecholamine release
Type: cell-based, rat
Experimental: Cells were cultured in suspension in 75 mm^2 tissue culture flasks with RPMI 1640 (Invitrogen, Carlsbad, Calif.) cell culture media supplemented with 15% horse serum (Invitrogen), 2.5% fetal bovine serum (Invitrogen) and 0.02 mg/ml gentamicin (Invitrogen). Flasks were kept in an incubator at 37° C. with 5% CO2. Media was refreshed every 3-4 days, retaining 10% of the existing media each time. Cells were mechanically agitated to break up cell clusters through repeated washing through a pipettor tip. Additional separation was achieved through weekly, overnight treatment of the cells in 1 mM ethylene glycol tetraacetic acid (EGTA, Sigma-Aldrich, St. Louis, Mo.) with subsequent washing and trituration.
Prior to use, cells were transferred to Locke's buffer consisting of 154 mM NaCl, 5.6 mM KCl, 3.6 mM NaHCO3, 2.3 mM CaCl2, 5.6 mM glucose, and 5 mM Hepes (pH 7.4). An aliquot of the solution was immediately transferred to the MEMS device via manual pipette aspiration. […]
Neurotransmitter release from the PC12 cells was measured using a three electrode arrangement with a Au WE (FIGS. 3A and 3B, WE), a Au counter electrode (FIGS. 3A and 3B, CE) and silver/silver chloride (Ag/AgCl) reference electrode (RE) with all controlled by a NPI VA-10 potentiostat (National Precision Instruments (NPI), Tamm, Germany). […]

Structure (SMILES) | exocytosis activity after exposure to the actin-disrupting agent (population of PC12 cells exposed to cytochalasin-D, data not shown) | cube root of quantal yield (PC12 cells differentiated with 5 μM dexamethasone, n=209 cells, k=25,463 spikes, WE +700 mV vs Ag/AgCl)
C=C1[C@@H](C)[C@H]2[C@H](Cc3ccccc3)NC(=O)[C@]23[C@H](OC(C)=O)/C=C/[C@@](C)(O)C(=O)[C@@H](C)C/C=C/[C@H]3[C@@H]1O [cytochalasin-D] | did not block | 
C[C@@H]1C[C@H]2[C@@H]3CCC4=CC(=O)C=C[C@]4(C)[C@@]3(F)[C@@H](O)C[C@]2(C)[C@@]1(O)C(=O)CO [dexamethasone] |  | 6.6±0.08 zmol^1/3

— US20130130299A1, “ELECT[…] CYTOMETRY” (University of Utah Research Foundation, priority 2009, published 2013)
